Results reported in patent US8497075B2, “Methods of identifying a modulator that inhibits the binding between Epstein-Barr virus induced receptor 2 and cholesterol derived ligands” (Novartis AG, priority 2008, dated 2013).

Tests used:
[1] = test system: MAP/ERK signaling pathway (p44/42 MAP kinase); experiment: Western blot of MAP/ERK phosphorylation, EBI2 expressing CHO cell line; assay type: cell-based, Chinese hamster; conditions: 5 min after compound addition
Protocol: Cells (E2=CHO/AEQ/Gqi5/hEBI2) were seeded at 2×10^5 cell/well in a 12 well plate (TPP #92012) and incubated at 37° C./5% CO2 overnight. The next day medium was removed and cells were starved in serum-free medium for 4 h. Subsequently compound was added for 5 min at RT before cells were lysed (70 ul, 0.5% Triton-X100, 300 mM NaCl, 50 mM Tris pH7.5, Complete™ protease inhibitor cocktail Roche #04693124001). Cell lysates were resolved by gradient SDS-PAGE (NuPage™4-12%, #NP0322Box), transferred by semi-dry blotting to nitrocellulose (Invitrogen, #LC2001) and probed with a phospho p42/44 MAPK (T202/Y204) rabbit mAb (Cell Signalling #4376S). After treatment with a secondary goat anti rabbit-HRP (Pierce #41460) antibody the blots were developed for chemiluminescence (SuperSignal West Dura™, Pierce #34075) and visualized using a BioRad GEL DOC™ imaging system.

[2] = test system: 26 GPCR binding assays, 9 GPCR functional assays, 40 kinase assays, ion channels, proteases, transporter and enzyme assays; conditions: data not shown
From the text: So far oxysterols have been noted to have various physiological activities namely regulate the expression of genes that participate in both sterol and fat metabolism, serve as substrates for the synthesis of bile acids, and are intermediates in the transfer of sterols from the periphery to the liver (Russell, D. W. (2000). Oxysterol biosynthetic enzymes. Biochim. Biophys. Acta 1529, 126-135). […] This included binding assays for 26 different GPCRs, functional assays of 9 different GPCRs, 40 kinase assays, as well as selected ion channels, proteases, transporter and enzyme assays.

[3] = test system: mouse bone marrow-derived dendritic cells (wild type); experiment: chemotaxis assay, wild type dendritic cells; assay type: cell-based
Protocol: (§1) B cells (RS11846 or EBV-infected human B-cells) or murine bone marrow-derived dendritic cells were washed once with medium and resuspended at 1×10^6/ml. 100 μl of this suspension was added into the wells of the filter plate and gently placed into the receiver plate containing 150 μl of a given compound dilution. The final DMSO concentration was less then 0.1%. After migration for 3 hr at 37° C. in an incubator, the filter plate was carefully removed from the receiver plate and discarded. The migrated cells in the receiver plate were resuspended and transferred into round-bottom 96-well plate, centrifuged and resuspended in 100 μl PBS containing 2% FCS and 0.1% NaN3 (FACS buffer). The input cells (100 μl) were similarly processed. For the calculation of the specific migration, a fixed number of beads (10000; Invitrogen #PCB100)) in 20 μl FACS buffer was added and the suspension was analyzed by flow cytometry using a FACS instrument PAS™ (Partec). Cells were identified based on their forward scatter (FSC) and side scatter (SSC) pattern. Chemotaxis is expressed either as total cell number or as percent of input cells.
(§2) In order to generate sufficient numbers of dendritic cells (DC) we isolated bone marrow from wild type and EBI2-deficient mice (Deltagen) and treated them in culture for 7-8 days with murine IL4 and murine GM-CSF. […]

[4] = test system: bone marrow-derived dendritic cells from EBI2(−/−) mice; experiment: chemotaxis assay, EBI2(−/−) dendritic cells; assay type: cell-based, mouse
Protocol: as §1, §2

[5] = test system: EBV-infected human B cells; experiment: chemotaxis trans well assay; assay type: cell-based; conditions: 3 hr migration
Protocol: as §1
Human peripheral B lymphocytes (PBL) were prepared from peripheral blood as a cell suspension by centrifugation on Ficoll plaque. PBL were rinsed in PBS and resuspended in complete RPMI 1640 medium (10% FCS and antibiotics) at the concentration of 2×10^7/cell/ml. […]

RS11846 cells = experiment: chemotaxis 96 transwell assay; assay type: cell-based; conditions: 3 hr migration
Protocol: as §1

mouse EBI2 receptor = target: T1, mouse EBI2 receptor (Mus musculus, UniProt Q3U6B2); experiment: aequorin assay, mouse EBI2 CHO-Aeq cells; assay type: cell-based
T1 construct: expressed in transfected cells; host or cells: CHO-K1 expressing apoaequorin (CHO-Aeq), Gqi5 or Gα16 background
T1 sequence (Q3U6B2 whole entry): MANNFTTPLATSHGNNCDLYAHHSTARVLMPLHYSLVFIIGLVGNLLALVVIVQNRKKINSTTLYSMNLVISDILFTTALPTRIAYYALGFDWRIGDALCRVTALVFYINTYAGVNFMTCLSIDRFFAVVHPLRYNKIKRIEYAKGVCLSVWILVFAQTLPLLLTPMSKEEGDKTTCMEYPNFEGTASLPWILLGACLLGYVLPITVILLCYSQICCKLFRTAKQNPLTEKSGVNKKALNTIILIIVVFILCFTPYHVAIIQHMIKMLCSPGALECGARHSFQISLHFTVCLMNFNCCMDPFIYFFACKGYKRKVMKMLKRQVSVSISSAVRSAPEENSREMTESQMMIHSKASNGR
From the text: Human EBI2 gene was cloned using RT-PCR from HL-60 cDNA and corresponded to the Genbank accession number NP_004942. The human EBI2 was inserted into the pEFIN3 vector at the EcoRI and XbaI sites in the multiple cloning site. Mouse EBI2 was cloned using RT-PCR from mouse genomic DNA and corresponded to the Genbank accession number Q3U6B2. The mouse EBI2 was inserted into the pEFIN3 vector at the EcoRI and XbaI sites in the multiple cloning site. Plasmids expressing human and mouse EBI2 were stably transfected in CHO-K1 and HEK293 cells expressing the apoaequorin (CHO-Aeq and HEK-Aeq) (Table 1). mRNA sequence integrity of EBI2 gene was checked using RT-PCR at T0 & T30 culture times in CHO cells.
We also confirmed activation of hEBI2 by 7b,25DHC in different CHO-Aeq cell backgrounds (Gqi5 and Gα16 (=WTA11)) (FIG. 14). […] Finally, we confirmed activation of hEBI2 by 7b,25DHC with hEBi2-HEK-Aeq Gα16 cells (pCAeqG9) and hEBi2 transiently transfected in HEK T cells (data not shown).

Row | Structure (SMILES) | activation of MAP/ERK signaling pathway (p44/42 MAP kinase phosphorylation) [1] | interaction in safety panel [2] | migration of DCs from wild type animals towards compound [3] | migration of DCs from EBI2(−/−) mice towards compound [4] | attraction (migration) of EBV-infected B cells [5] | attraction (migration) of RS11846 cells (RS11846 cells) | activation of mouse EBI2 receptor (mouse EBI2 receptor)
1 | C[C@H](CCCC(C)(C)O)[C@H]1CC[C@H]2[C@@H]3[C@H](O)C=C4C[C@@H](O)CC[C@]4(C)[C@H]3CC[C@]12C [7a,25DHC, cholest-5-ene-3b,7a,25-triol] | potently activate | In none of these assay did we see a significant interaction | migrate | do not migrate | potently attract | potently attract | 
2 | C[C@H](CCCC(C)(C)O)[C@H]1CC[C@H]2[C@@H]3[C@@H](O)C=C4C[C@@H](O)CC[C@]4(C)[C@H]3CC[C@]12C [7b,25DHC, cholest-5-ene-3b,7b,25-triol] |  |  |  |  |  |  | activation
